# Tested on: 616215-338-R-J1-PDC complex spheroid growth, % test/control
# Assay: Anticancer human tumor 616215-338-R-J1-PDC patient-derived colon adenocarcinoma cell line growth inhibition [Asc]
# Details: for IC50: curve of first compound; for viability, T/C: stronger effect = lower value
# Protocol: Multicellular complex tumor spheroid response to apoptosis pathway targeting inhibitors Alrizomadlin, Pelcitoclax, and Dasminapant in combination with a variety of drugs and investigational agents in selected tumor cell lines
# The MDM2 inhibitor alrizomadlin, the Bcl-2/Bcl-xL inhibitor pelcitoclax, and the IAPs inhibitor dasminapant were evaluated both individually and in combination with standard of care and investigational anticancer small molecules within a complex spheroid model of solid tumors. . Complex spheroids include a stromal component modeled by human endothelial cells (HUVEC) and fibroblasts modeled by human mesenchymal stem cells (MSCs). The concentration ranges selected for each drug and investigational agent were based upon clinically achievable concentrations if the clinical Cmax of the agent was known.
# Compounds. The drugs and investigational agents: alrizomadlin (APG-115; NSC831270), pelcitoclax (APG-1252; NSC835773), dasminapant (APG-1387;NSC834197), TAK-243 (NSC785004), copanlisib (NSC809693), olaparib (NSC753686), talazoparib (NSC767125), cobimetinib (NSC 768068), eltanexor (KPT-8602, NSC 794443), abemaciclib (NSC 768073), sotorasib (NSC818433), adagrasib (NSC 831453), MRTX-1133 (NSC 836407), Iadademestat (ORY1001, NSC 806812), and RMC-4630 (NSC839698), were obtained from the NCI Developmental Therapeutics Program Chemical Repository. The FDA-approved anticancer drug set is available from the Developmental Therapeutics Program at https://dtp.cancer.gov/organization/dscb/obtaining/available plates.htm. […] The stock solutions were prepared in dimethyl sulfoxide (DMSO, Sigma-Aldrich, St. Louis, MO, cat. D2650) at 800-fold the tested concentration and stored at -70 degrees C prior to their use. All drugs and investigational agents were tested over a range starting from a high concentration at or near the clinical Cmax and decreasing in half-log increments. If the clinical Cmax for an agent had not been determined, the highest concentration tested was 10 microM.
# The patient-derived cancer (PDC) cell lines include five colon adenocarcinomas: 186277-243-T-J2-PDC, 616215-338-R-J1-PDC, 439559-082-T-J2-PDC, 463943-066-T-J2-PDC, and 519858-162-T-J1-PDC; three pancreatic carcinomas: 323965-272-R-J2-PDC, 521955-158-R6-J3-PDC, and 521955-158-R2-J5-PDC; two uterine sarcomas: 327498-152-R-J2-PDC and 993429-296-R-J1-PDC; two rhabdomyosarcomas: 755483-174-R-J1-PDC and 772245-204-R-J1-PDC; two soft tissue sarcomas: 126254-015-R-J1-PDC and 494315-158-R-J1-PDC; two malignant fibrous histiocytomas: 317291-083-R-J1-PDC and 596521-263-R-J1-PDC; two breast carcinomas: 171881-019-R-J1-PDC and 885512-296-R-J2-PDC; and one ovarian carcinoma: 6556581-035-R-J-PDC were obtained from the NCI PDMR, (https://pdmr.cancer.gov). The established cell lines HSSY-2 synovial sarcoma (RRID:CVCL 8719), SYO-1 synovial sarcoma (RRID:CVCL_7146), MPNST malignant peripheral neural sheath tumor were obtained from the Sloan Kettering Institute. The following established cell lines were purchased from the American Type Culture Collection (ATCC, Manassas, VA), Sor the received from the NCI repository:, PANC-1 pancreatic carcinoma (CRL-1469, RRID:CVCL_0480), OVCAR-5 ovarian carcinoma (RRID:CVCL_1628), OVCAR-8 ovarian carcinoma (RRID:CVCL_1629), , MCF-7 breast carcinoma (CRL-12584, RRID:CVCL_0031), MDA-MB-231 breast carcinoma (CRL-12532, RRID:CVCL_0062), NCI-H1876 small cell lung carcinoma (CRL-5902, RRID:CVCL_1503), NCI-H510A small cell lung carcinoma (HTB-184, RRID:CVCL_1565), NCI-H1417 (CRL-5869, RRID:CVCL_1469), and NCI-H196 small cell lung carcinoma (CRL-5823, RRID:CVCL_1509). Dr. Peter Houghton (Greehey Children's Cancer Research Institute, University of Texas Health Science Center, San Antonio, TX) provided Rh-18 rhabdomyosarcoma (RRID:CVCL_1659). Pooled donor human umbilical vein endothelial cells (HUVEC, Lonza, cat. CC-2519) and human mesenchymal stem cells (hMSC, Lonza, cat. PT-2501) were purchased from Lonza (Walkersville, MD).
# Cell Culture. […]
# [1] = second compound 0.03 µM, first compound 0.00316 µM
# [2] = second compound 0.03 µM, first compound 0.01 µM
# [3] = second compound 0.03 µM, first compound 0.0316 µM
# [4] = second compound 0.03 µM, first compound 0.1 µM
# [5] = second compound 0.0949 µM, first compound 0.00316 µM
# [6] = second compound 0.0949 µM, first compound 0.01 µM
# [7] = second compound 0.0949 µM, first compound 0.0316 µM
# [8] = second compound 0.0949 µM, first compound 0.1 µM
# [9] = second compound 0.3 µM, first compound 0.00316 µM
# [10] = second compound 0.3 µM, first compound 0.01 µM
# [11] = second compound 0.3 µM, first compound 0.0316 µM
# [12] = second compound 0.3 µM, first compound 0.1 µM
# [13] = second compound 0.949 µM, first compound 0.00316 µM
# [14] = second compound 0.949 µM, first compound 0.01 µM
# [15] = second compound 0.949 µM, first compound 0.0316 µM
# [16] = second compound 0.949 µM, first compound 0.1 µM
# [17] = second compound 3 µM, first compound 0.00316 µM
# [18] = second compound 3 µM, first compound 0.01 µM
# [19] = second compound 3 µM, first compound 0.0316 µM
# [20] = second compound 3 µM, first compound 0.1 µM
# [21] = second compound 0.03 µM, first compound 0.316 µM
# [22] = second compound 0.03 µM, first compound 1 µM
# [23] = second compound 0.0949 µM, first compound 0.316 µM
# [24] = second compound 0.0949 µM, first compound 1 µM
# [25] = second compound 0.3 µM, first compound 0.316 µM
# [26] = second compound 0.3 µM, first compound 1 µM
# [27] = second compound 0.949 µM, first compound 0.316 µM
# [28] = second compound 0.949 µM, first compound 1 µM
# [29] = second compound 3 µM, first compound 0.316 µM
# [30] = second compound 3 µM, first compound 1 µM
# 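Also: spheroids exposed to agents for seven days before readout.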
# 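For viability, T/C in this document: 100% = DMSO vehicle control viability.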
IC50 (second compound 0.03 µM),IC50 (second compound 0.0949 µM),IC50 (second compound 0.3 µM),IC50 (second compound 0.949 µM),IC50 (second compound 3 µM),SMILES,"viability, T/C [1]","viability, T/C [2]","viability, T/C [3]","viability, T/C [4]","viability, T/C [5]","viability, T/C [6]","viability, T/C [7]","viability, T/C [8]","viability, T/C [9]","viability, T/C [11]","viability, T/C [12]","viability, T/C [15]","viability, T/C [16]","viability, T/C [19]","viability, T/C [20]",further results
> 100 nM,> 100 nM,> 100 nM,> 100 nM,3.14 nM,Cn1ncnc1[C@H]1c2n[nH]c(=O)c3cc(F)cc(c23)N[C@@H]1c1ccc(F)cc1 + CCN1C(C(=O)NC23CCC(C(=O)O)(CC2)CC3)C(c2cccc(Cl)c2F)C2(C(=O)Nc3cc(Cl)ccc32)C12CCCCC2,97.8%,105%,92.3%,85.5%,89%,85%,81.5%,75.6%,67.6%,58.9%,61.8%,57.2%,61.3%,47.5%,48.3%,"viability, T/C (second compound 0.03 µM, first compound 0.000316 µM): 107%; viability, T/C (second compound 0.03 µM, first compound 0.001 µM): 103%; viability, T/C (second compound 0.0949 µM, first compound 0.000316 µM): 99.2%; viability, T/C (second compound 0.0949 µM, first compound 0.001 µM): 95.5%; viability, T/C (second compound 0.3 µM, first compound 0.000316 µM): 69.6%; viability, T/C (second compound 0.3 µM, first compound 0.001 µM): 70.9%; viability, T/C [10]: 56.7%; viability, T/C (second compound 0.949 µM, first compound 0.000316 µM): 65.3%; viability, T/C (second compound 0.949 µM, first compound 0.001 µM): 66.5%; viability, T/C [13]: 67.4%; viability, T/C [14]: 56.8%; viability, T/C (second compound 3 µM, first compound 0.000316 µM): 50.2%; viability, T/C (second compound 3 µM, first compound 0.001 µM): 55.5%; viability, T/C [17]: 49.9%; viability, T/C [18]: 46.1%"
> 10000 nM,> 10000 nM,> 10000 nM,> 10000 nM,> 10000 nM,O=C(c1cc(Cc2n[nH]c(=O)c3ccccc23)ccc1F)N1CCN(C(=O)C2CC2)CC1 + CCN1C(C(=O)NC23CCC(C(=O)O)(CC2)CC3)C(c2cccc(Cl)c2F)C2(C(=O)Nc3cc(Cl)ccc32)C12CCCCC2,,,101%,99.1%,,,99%,100%,,73.3%,72.6%,74.7%,80.8%,61.4%,62.5%,"viability, T/C [21]: 99.4%; viability, T/C [22]: 99.8%; viability, T/C (second compound 0.03 µM, first compound 3.16 µM): 94.1%; viability, T/C (second compound 0.03 µM, first compound 10 µM): 77.6%; viability, T/C [23]: 97.8%; viability, T/C [24]: 92.2%; viability, T/C (second compound 0.0949 µM, first compound 3.16 µM): 81.2%; viability, T/C (second compound 0.0949 µM, first compound 10 µM): 67.5%; viability, T/C [25]: 78%; viability, T/C [26]: 71.8%; viability, T/C (second compound 0.3 µM, first compound 3.16 µM): 61.4%; viability, T/C (second compound 0.3 µM, first compound 10 µM): 65.2%; viability, T/C [27]: 72.4%; viability, T/C [28]: 68.5%; viability, T/C (second compound 0.949 µM, first compound 3.16 µM): 67%; viability, T/C (second compound 0.949 µM, first compound 10 µM): 55.7%; viability, T/C [29]: 60.5%; viability, T/C [30]: 60.1%; viability, T/C (second compound 3 µM, first compound 3.16 µM): 51.8%; viability, T/C (second compound 3 µM, first compound 10 µM): 48.8%"
70 nM,52.9 nM,16.4 nM,5.81 nM,< 3.16 nM,O=C(c1ccc(F)c(F)c1Nc1ccc(I)cc1F)N1CC(O)([C@@H]2CCCCN2)C1 + CCN1C(C(=O)NC23CCC(C(=O)O)(CC2)CC3)C(c2cccc(Cl)c2F)C2(C(=O)Nc3cc(Cl)ccc32)C12CCCCC2,89.9%,88.6%,90.1%,32.3%,93.8%,93.6%,74.5%,19.6%,59.8%,38.8%,3%,23.3%,2.29%,3.79%,0.28%,"viability, T/C [21]: 0.26%; viability, T/C [22]: 0.38%; viability, T/C [23]: 0.23%; viability, T/C [24]: 0.37%; viability, T/C [10]: 57.7%; viability, T/C [25]: 1.18%; viability, T/C [26]: 1.93%; viability, T/C [13]: 55.5%; viability, T/C [14]: 44.2%; viability, T/C [27]: 1.21%; viability, T/C [28]: 3.73%; viability, T/C [17]: 40.3%; viability, T/C [18]: 36%; viability, T/C [29]: 0.56%; viability, T/C [30]: 2.69%"

# From PubChem BioAssay AID1963448 (Molecular Pharmacology Branch, DTP, NCI, 2024)
